Experimental data reported in US11299468B2, “Methods for producing 5-(halomethyl)furfural” (Origin Materials Operating, Inc., priority 2013, dated 2022).

Assay: Partition coefficient screen of CMF between organic phase and acidic brine
Assay type: physicochemical
Protocol: The solvent system used in the methods and compositions described herein may also be selected based on the partition coefficient of the 5-(halomethyl)furfural in the reaction mixture. As used herein, “partition coefficient” refers to the ratio of molar concentration of 5-(halomethyl)furfural in the organic phase to 5-(halomethyl)furfural in the aqueous phase in the reaction mixture.
[…] […] A 1 mL sample was removed from each phase. The microwave vial was then resealed, and re-shaken.
The 1 mL samples were added to volumetric flasks, where the acidic brine solution was diluted with THF and an amount of 37% HCl (˜3 mL) sufficient to eliminate the formation of a biphase with THF. The organic phase sample was diluted with toluene. The dilutions were then put into 1 dram vials and saved.
Further sampling of each phase was repeated every […] for the duration of each 4-hour experiment resulting in a total of 6 samples per experiment. Throughout the course of the experiment the microwave vial was shaken every 20 minutes to promote contact between the two phases. The 6 samples of each experiment in this Example were then taken from the 1 dram vials and put into 1.5 ml vials and submitted to HPLC for CMF analysis.

[1] = No. 1, organic Toluene, aqueous HCl (11.66N), 25 °C
[2] = No. 2, organic Toluene, aqueous 1N H+ 11N Li+ 12N Cl−, 24.6 °C
[3] = No. 3, organic Toluene, aqueous 6N H+ 6N Li+ 12N Cl−, 25 °C
[4] = No. 4, organic Toluene, aqueous 2N H+ 10N Li+ 12N Cl−, 29.7 °C
[5] = No. 5, organic Toluene, aqueous 1N H+ 11N Li+ 12N Cl−, 50 °C
[6] = No. 6, organic Toluene, aqueous 6N H+ 6N Li+ 12N Cl−, 50 °C
[7] = No. 7, organic Toluene, aqueous 2N H+ 10N Li+ 12N Cl−, 50 °C
[8] = No. 8, organic Toluene, aqueous 2N H+ 4N Mg2+ 12N Cl−, 23.6 °C
[9] = No. 9, organic Toluene, aqueous 2N H+ 4M sodium triflate 2M Cl−, 27.1 °C
[10] = No. 10, organic Toluene, aqueous 2M H+ 10M Na+ 12M Cl−, 24.6 °C
[11] = No. 11, organic Toluene, aqueous 2M H+ 1:1 12M LiCl:saturated NaCl, 24.1 °C
[12] = No. 12, organic Toluene, aqueous 2M H+ saturated KCl, 24.2 °C
[13] = No. 13, organic Toluene, aqueous 2M H+ 1:1 12M LiCl:saturated KCl, 24.8 °C
[14] = No. 14, organic Toluene, aqueous 2M H+ 1:2 12M LiCl:saturated NaCl, 24.5 °C
[15] = No. 15, organic Toluene, aqueous 2M H+ 1:2 12M LiCl:saturated KCl, 24.5 °C
[16] = No. 16, organic Toluene, aqueous 2M H+ 1:1 12M LiCl:saturated MgCl2, 22 °C
[17] = No. 17, organic Toluene, aqueous 2M H+ 10M Zn2+ 24M Cl−, 22 °C
[18] = No. 18, organic Toluene, aqueous 2M H+ 4.13M Ca2+ 12.2M Cl−, 27 °C
[19] = No. 19, organic Toluene, aqueous 2M H+ 6M Ca2+ 14M Cl−, 27 °C
[20] = No. 20, organic Toluene, aqueous 2M H+ 4.13M Ca2+ 12.2M Cl−, 50 °C
[21] = No. 21, organic Toluene, aqueous 2M H+ 6M Ca2+ 14M Cl−, 50 °C
[22] = No. 22, organic Toluene, aqueous 2M H+ Satd. Rb, 24.5 °C
[23] = No. 23, organic Toluene, aqueous 2M H+ Satd. Cs, 24.5 °C
[24] = No. 24, organic Cepsa ® 550Q, aqueous 6N H+ 6N Li+ 12N Cl−, 23.3 °C
[25] = No. 25, organic Cepsa ® 550Q, aqueous 1N H+ 11N Li+ 12N Cl−, 24.5 °C
[26] = No. 26, organic Cepsa ® 900Q, aqueous 1N H+ 11N Li+ 12N Cl−, 22.8 °C
[27] = No. 27, organic Cepsa ® 900Q, aqueous 6N H+ 6N Li+ 12N Cl−, 26.5 °C
[28] = No. 28, organic Santovac ®-5, aqueous 1N H+ 11N Li+ 12N Cl−, 27.2 °C
[29] = No. 29, organic Santovac ®-5, aqueous 6N H+ 6N Li+ 12N Cl−, 23.7 °C
[30] = No. 30, organic Santovac ®-5, aqueous 2N H+ 10N Li+ 12N Cl−, 28.1 °C
[31] = No. 31, organic Santovac ®-5, aqueous 1N H+ 11N Li+ 12N Cl−, 50 °C
[32] = No. 32, organic Santovac ®-5, aqueous 6N H+ 6N Li+ 12N Cl−, 50 °C
[33] = No. 33, organic Santovac ®-5, aqueous 2N H+ 10N Li+ 12N Cl−, 50 °C
[34] = No. 34, organic Dichloroethane (4 mL), aqueous 37% HCl (4 mL), 28.5 °C
[35] = No. 35, organic Dichloroethane (17.6 mL), aqueous 37% HCl (4 mL), 28.5 °C

**Q.** Which “Normalized ratio (organic:aqueous)” value [1] does the source give for `O=Cc1ccc(CCl)o1` [CMF, 5-(chloromethyl)furfural] here?
**A.** 3.0

**Q.** What about the “log PC” value [1] of the same compound?
**A.** 0.48

**Q.** What about the “Normalized ratio (organic:aqueous)” value [2] of the same compound?
**A.** 144.0

**Q.** What about the “log PC” value [2] of the same compound?
**A.** 2.16

**Q.** What about the “Normalized ratio (organic:aqueous)” value [3] of the same compound?
**A.** 17.4

**Q.** And the “log PC” value [3]?
**A.** 1.24

**Q.** What about the “Normalized ratio (organic:aqueous)” value [4] of the same compound?
**A.** 72.9

**Q.** And the “log PC” value [4]?
**A.** 1.86

**Q.** What about the “Normalized ratio (organic:aqueous)” value [5] of the same compound?
**A.** 110.0

**Q.** And the “log PC” value [5]?
**A.** 2.04

**Q.** What about the “Normalized ratio (organic:aqueous)” value [6] of the same compound?
**A.** 18.9

**Q.** And the “log PC” value [6]?
**A.** 1.27

**Q.** And the “Normalized ratio (organic:aqueous)” value [7]?
**A.** 79.6

**Q.** And the “log PC” value [7]?
**A.** 1.9

**Q.** What about the “Normalized ratio (organic:aqueous)” value [8] of the same compound?
**A.** 61.3

**Q.** And the “log PC” value [8]?
**A.** 1.78

**Q.** And the “Normalized ratio (organic:aqueous)” value [9]?
**A.** 8.3

**Q.** And the “log PC” value [9]?
**A.** 0.92

**Q.** What about the “Normalized ratio (organic:aqueous)” value [10] of the same compound?
**A.** 66.1

**Q.** And the “log PC” value [10]?
**A.** 1.82

**Q.** What about the “Normalized ratio (organic:aqueous)” value [11] of the same compound?
**A.** 90.1

**Q.** What about the “log PC” value [11] of the same compound?
**A.** 1.95

**Q.** What about the “Normalized ratio (organic:aqueous)” value [12] of the same compound?
**A.** 222.0

**Q.** What about the “log PC” value [12] of the same compound?
**A.** 2.34

**Q.** And the “Normalized ratio (organic:aqueous)” value [13]?
**A.** 71.1

**Q.** And the “log PC” value [13]?
**A.** 1.85

**Q.** What about the “Normalized ratio (organic:aqueous)” value [14] of the same compound?
**A.** 100.0

**Q.** What about the “log PC” value [14] of the same compound?
**A.** 2

**Q.** And the “Normalized ratio (organic:aqueous)” value [15]?
**A.** 119.0

**Q.** What about the “log PC” value [15] of the same compound?
**A.** 2.07

**Q.** And the “Normalized ratio (organic:aqueous)” value [16]?
**A.** 68.0

**Q.** What about the “log PC” value [16] of the same compound?
**A.** 1.83

**Q.** And the “Normalized ratio (organic:aqueous)” value [17]?
**A.** 0.6

**Q.** What about the “log PC” value [17] of the same compound?
**A.** −0.23

**Q.** What about the “Normalized ratio (organic:aqueous)” value [18] of the same compound?
**A.** 73.8

**Q.** And the “log PC” value [18]?
**A.** 1.87

**Q.** And the “Normalized ratio (organic:aqueous)” value [19]?
**A.** 80.0

**Q.** What about the “log PC” value [19] of the same compound?
**A.** 1.9

**Q.** What about the “Normalized ratio (organic:aqueous)” value [20] of the same compound?
**A.** 82.6

**Q.** And the “log PC” value [20]?
**A.** 1.91

**Q.** And the “Normalized ratio (organic:aqueous)” value [21]?
**A.** 141.7

**Q.** And the “log PC” value [21]?
**A.** 2.15

**Q.** What about the “Normalized ratio (organic:aqueous)” value [22] of the same compound?
**A.** 74.7

**Q.** What about the “log PC” value [22] of the same compound?
**A.** 1.87

**Q.** What about the “Normalized ratio (organic:aqueous)” value [23] of the same compound?
**A.** 41.3

**Q.** And the “log PC” value [23]?
**A.** 1.61

**Q.** What about the “Normalized ratio (organic:aqueous)” value [24] of the same compound?
**A.** 1.6

**Q.** And the “log PC” value [24]?
**A.** 1.61

**Q.** And the “Normalized ratio (organic:aqueous)” value [25]?
**A.** 20.3

**Q.** What about the “log PC” value [25] of the same compound?
**A.** 1.31

**Q.** What about the “Normalized ratio (organic:aqueous)” value [26] of the same compound?
**A.** 10.2

**Q.** What about the “log PC” value [26] of the same compound?
**A.** 1.01

**Q.** What about the “Normalized ratio (organic:aqueous)” value [27] of the same compound?
**A.** 0.9

**Q.** What about the “log PC” value [27] of the same compound?
**A.** −0.04

**Q.** And the “Normalized ratio (organic:aqueous)” value [28]?
**A.** 60.7

**Q.** And the “log PC” value [28]?
**A.** 1.78

**Q.** And the “Normalized ratio (organic:aqueous)” value [29]?
**A.** 6.6

**Q.** And the “log PC” value [29]?
**A.** 0.82

**Q.** What about the “Normalized ratio (organic:aqueous)” value [30] of the same compound?
**A.** 43.7

**Q.** What about the “log PC” value [30] of the same compound?
**A.** 1.64

**Q.** And the “Normalized ratio (organic:aqueous)” value [31]?
**A.** 65.6

**Q.** And the “log PC” value [31]?
**A.** 1.81

**Q.** What about the “Normalized ratio (organic:aqueous)” value [32] of the same compound?
**A.** 10.3

**Q.** What about the “log PC” value [32] of the same compound?
**A.** 1.01

**Q.** And the “Normalized ratio (organic:aqueous)” value [33]?
**A.** 55.9

**Q.** What about the “log PC” value [33] of the same compound?
**A.** 1.74

**Q.** What about the “Normalized ratio (organic:aqueous)” value [34] of the same compound?
**A.** 10.9

**Q.** And the “log PC” value [34]?
**A.** 1.03

**Q.** And the “Normalized ratio (organic:aqueous)” value [35]?
**A.** 11.6

**Q.** What about the “log PC” value [35] of the same compound?
**A.** 1.7
